Source: article PMC11546719, “Immune Modulatory Profile of the Pateamines PatA and Des-Methyl Des-Amino PatA” (International Journal of Molecular Sciences, 2024)

Legend:
Human primary B cells = assay: B cell activation with IL-21, sCD40L, CpG and anti-IgM; assay type: cell-based; conditions: for B cell activation (formation of plasma cells, proliferation, release of IgGs) / Cell viability (zombie staining): activated B cells, 5 days; for Effect on the release of inflammatory markers, B Cells: summary table
Description: B cells were activated as described by Khoenkhoen et al.. […].
Surface marker analysis was performed as described previously. Briefly, 1.5–2 × 10^5 cells of each sample were blocked with human FcR Blocking Reagent (15 min, 4 °C). […]. Afterwards, samples were stained with a mixture of different surface marker antibodies (15 min, 4 °C) and measured with MACSQuant® Analyzer 10 flow cytometer. For M1-/M2-MdMs anti-CD86, anti-CD14, anti-HLA-DR, anti-CD206, anti-CD80, anti-TREM2 and anti-CD163 were used. For T cells, anti-CD69, anti-CD54, anti-CD49a, anti-CD18, anti-CD134, anti-CD154, anti-CD3 and anti-CD25 were analyzed. For B cells, anti-CD27, anti-CD19 and anti-CD38 were applied. For T cell and B cell proliferation assay, freshly isolated T and B cells were stained with CTV and detected using flow cytometry. Naïve B cells were characterized as CD19^+CD27^lowCD38^med, memory B cells as CD19^+CD27^med CD38^low and plasma cells as CD27^+CD38^+ cells. M1 MdMs and M2 MdMs cell population was gated using FSC/SSC channel. T cells were gated as CD3^+CD25^+ positive cells. The geometric mean of the fluorescent intensity was calculated using FlowJo software v10 (Treestar, Ashland, […], USA). Fold induction of surface marker expression was calculated using the DMSO-treated cells as the control.
(§1) For determination of cytokine concentrations in the supernatant of humane immune cells, cytometric bead array (BD Biosciences, Heidelberg, Germany) for IL-10, IL-17, IL-8, IL-6, IFN-γ and CCL2 was used. For the detection of CCL18, CCL17, IgG, IgA and PGE2, an ELISA was performed. The cytometric bead arrays and the ELISAs were performed according to the protocol of the supplier.

T cells = assay: Energy metabolism (Seahorse OCR/ECAR) in T cells; assay type: cell-based, human; conditions: 5 days, PatA, DMDA 0.25-0.5 nM, silvestrol 5 nM
Description: (§2) The determination of the energy metabolism was performed as described previously. Briefly, for the analysis of the extracellular acidification rate (ECAR) and the oxygen consumption rate (OCR) for human B cells, Tcells, M1 MdMs and M2 MdMs, the Seahorse XFe96 FluxPak (Agilent, Waldbronn, Germany) was used as recommended by the manufacturer. MdMs were polarized to M1 or M2 MdMs in the presence of PatA (0.5, 2.5, 5 nM), DMDA (0.5, 2.5, 5 nM) or vehicle (DMSO) for 48 h or 24 h, respectively. T cells were activated in the presence of PatA (0.25, 0.5 nM), DMDA (0.25, 0.5 nM), silvestrol or DMSO. B cells were activated in the presence of PatA (0.25, 0.5 nM), DMDA (0.25, 0.5 nM), silvestrol (5 nM) or rapamycin (10 ng/mL positive control). Cells were washed with Seahorse XF RPMI medium pH 7.4 (Agilent, Waldbronn, Germany) and OCR and ECAR were measured as octuplicates for a period of 160 min using the Seahorse XFe96 Analyzer (Agilent, Waldbronn, Germany) and analyzed by Wave Software 2.6.3.8 (Agilent, Waldbronn, Germany). The relative values were calculated by relating the OCR or ECAR values obtained after 50 min to the values of the vehicle control (not stimulated).

M1 MdMs = assay: Energy metabolism (Seahorse OCR/ECAR) in M1 MdMs; assay type: cell-based, human; conditions: 48 h, 0.5-5 nM
Description: as §2

M2 MdMs = assay: Polarization of MdMs to M2 MdMs (zombie staining, flow cytometry, ELISA/CBA); assay type: cell-based, human; conditions: for Inflammatory environment (inflammatory mediators in supernatant): ELISA or CBA; for Apoptosis (zombie staining): IL-4 polarization, 0.5-5 nM; for Effect on the release of inflammatory markers, M2 MdM: summary table
Description: The differentiation of human monocytes to macrophages (MdMs) was performed as previously described. Briefly, 0.5 × 10^6 CD14^+ cells/well were pretreated with different concentrations of PatA and DMDA or vehicle (DMSO) for 30 min. After pre-incubation, differentiation was initiated by the addition of 10 ng/mL GM-CSF for M1 MdMs or 50 ng/mL M-CSF for M2 MdMs and incubated for 7 days.
The polarization of MdMs to M1 or M2 MdMs was performed as previously described. M1 and M2 MdM polarization was conducted in separate experiments. Briefly, M1 MdMs were polarized in presence of PatA (0.5, 2.5, 5 nM), DMDA (0.5, 2.5, 5 nM) or vehicle (DMSO) with 20 ng/mL human IFN-γ for 48 h. M2 MdMs were polarized in presence of PatA (0.5, 2.5, 5 nM), DMDA (0.5, 2.5, 5 nM) or vehicle (DMSO) with 10 ng/mL human IL-4 for 24 h.
Surface marker analysis was performed as described previously. Briefly, 1.5–2 × 10^5 cells of each sample were blocked with human FcR Blocking Reagent (15 min, 4 °C). A Zombie Aqua™ Fixable Viability Kit (1:500 dilution, BioLegend, San Diego, CA, USA) was used according to the manufactory protocol to discriminate living and dead cells. Afterwards, samples were stained with a mixture of different surface marker antibodies (15 min, 4 °C) and measured with MACSQuant® Analyzer 10 flow cytometer. For M1-/M2-MdMs anti-CD86, anti-CD14, anti-HLA-DR, anti-CD206, anti-CD80, anti-TREM2 and anti-CD163 were used. For T cells, anti-CD69, anti-CD54, anti-CD49a, anti-CD18, anti-CD134, anti-CD154, anti-CD3 and anti-CD25 were analyzed. For B cells, anti-CD27, anti-CD19 and anti-CD38 were applied. For T cell and B cell proliferation assay, freshly isolated T and B cells were stained with CTV and detected using flow cytometry. Naïve B cells were characterized as CD19^+CD27^lowCD38^med, memory B cells as CD19^+CD27^med CD38^low and plasma cells as CD27^+CD38^+ cells. M1 MdMs and M2 MdMs cell population was gated using FSC/SSC channel. T cells were gated as CD3^+CD25^+ positive cells. The geometric mean of the fluorescent intensity was calculated using FlowJo software v10 (Treestar, Ashland, […], USA). Fold induction of surface marker expression was calculated using the DMSO-treated cells as the control.
as §1

[1] = M2 MdMs, CD163low population, 24 h

Structure (SMILES): CC(/C=C/C(C)=C/[C@@H]1Cc2nc(cs2)CCCCC(=O)O[C@@H](C)C/C(C)=C/C=C\C(=O)O1)=C\CN(C)C [DMDA, des-methyl des-amino pateamine A]
- B cell activation (formation of plasma cells, proliferation, release of IgGs) (Human primary B cells): did not prevent B cell activation
- Cell viability (zombie staining) (Human primary B cells): did not reduce cell viability
- Effect on the release of inflammatory markers, B Cells (Human primary B cells): No effect
- Energy metabolism: glycolysis (ECAR) and oxidative phosphorylation (OCR) (T cells): did not alter the energy metabolism
- Energy metabolism: glycolysis (ECAR) and oxidative phosphorylation (OCR) (M1 MdMs): had no effect on energy consumption
- TREM2 surface marker expression (M2 MdMs; M2 MdMs, CD163low population, 24 h, 5 nM): increased the anti-inflammatory surface marker TREM2
- Inflammatory environment (inflammatory mediators in supernatant) (M2 MdMs; M2 MdMs): did not affect the inflammatory environment
- Apoptosis (zombie staining) (M2 MdMs; M2 MdMs, 24 h): did not induce apoptosis
- Effect on the release of inflammatory markers, M2 MdM (M2 MdMs): No effect

Structure (SMILES): CC(/C=C/C(C)=C/[C@@H]1Cc2nc(cs2)[C@@H](C)C[C@@H](N)CC(=O)O[C@@H](C)C/C(C)=C/C=C\C(=O)O1)=C\CN(C)C [PatA, pateamine A]
- Cell viability (zombie staining) (Human primary B cells): did not reduce cell viability
- B cell activation (formation of plasma cells, proliferation, release of IgGs) (Human primary B cells; 0.5 nM): showed similar effects to those of rapamycin
- Effect on the release of inflammatory markers, B Cells (Human primary B cells): IgA↓, IgG↓
- Energy metabolism: glycolysis (ECAR) and oxidative phosphorylation (OCR) (T cells): did not alter the energy metabolism
- Energy metabolism: glycolysis (ECAR) and oxidative phosphorylation (OCR) (M1 MdMs): reduced glycolysis and oxidative phosphorylation
- CD80 surface marker expression (M2 MdMs; [1]): induced the pro-inflammatory marker CD80
- CD206 surface marker expression (M2 MdMs; [1]): reduced the anti-inflammatory marker CD206
- Inflammatory environment (inflammatory mediators in supernatant) (M2 MdMs; M2 MdMs): did not affect the inflammatory environment
- Apoptosis (zombie staining) (M2 MdMs; M2 MdMs, 24 h): did not induce apoptosis
- Effect on the release of inflammatory markers, M2 MdM (M2 MdMs): No effect
